From ChEMBL document CHEMBL1201862, “PubChem BioAssay data set” (2004)
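Assay format: 96-well plates, 48-hour exposure. Here, GI50 denotes the concentration required for 50% inhibition of growth.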 Calls of active or inactive are those of the source. Rule as the data show it: active = GI50 up to about 1.1 µM and inactive = higher.

Key:
Test in all cases: DTP human tumour cell line panel, 48 h
A549 = test system: A549
COLO 205 = test system: COLO 205
HL-60 = test system: HL-60
HT-29 = test system: HT-29
M14 = test system: M14
Malme-3M = test system: Malme-3M
RXF 393 = test system: RXF 393
SK-MEL-2 = test system: SK-MEL-2
SK-OV-3 = test system: SK-OV-3
SN12C = test system: SN12C
SNB-75 = test system: SNB-75
SR = test system: SR
UO-31 = test system: UO-31
HOP-92 = test system: HOP-92
IGROV-1 = test system: IGROV-1
SF-539 = test system: SF-539

Measured: GI50

CC(=O)O[C@]12CCCCCC1C1(O)C(O)CCC[C@H]12 (stereo not given in full)
inactive: A549 > 100 µM | COLO 205 > 100 µM | HL-60 > 100 µM | HT-29 > 100 µM | M14 > 100 µM | Malme-3M > 100 µM | RXF 393 > 100 µM | SK-MEL-2 > 100 µM | SK-OV-3 > 100 µM | SN12C > 100 µM | SNB-75 > 100 µM | SR > 100 µM | UO-31 > 100 µM

CC1(c2ccccc2Cl)C(C#N)C(=O)NC(=O)C1C#N (stereo not given)
inactive: A549 45.5 µM | COLO 205 45 µM | HL-60 21.6 µM | HOP-92 23.5 µM | HT-29 36.6 µM | IGROV-1 64.1 µM | M14 42.6 µM | Malme-3M 35.5 µM | RXF 393 27.9 µM | SF-539 34.8 µM | SK-MEL-2 49.9 µM | SK-OV-3 34.6 µM | SN12C 28.7 µM | SNB-75 24.8 µM | UO-31 27.5 µM

O=C1CCC(c2ccccc2)C(O)(C(=O)O)C1 (stereo not given)
inactive: A549 > 100 µM | COLO 205 > 100 µM | HL-60 > 100 µM | HOP-92 > 100 µM | HT-29 > 100 µM | IGROV-1 > 100 µM | M14 > 100 µM | Malme-3M > 100 µM | SF-539 > 100 µM | SK-MEL-2 > 100 µM | SK-OV-3 > 100 µM | SN12C > 100 µM | SNB-75 > 100 µM | SR > 100 µM | UO-31 > 100 µM

COc1cccc(/C=C(\NC(C)=O)c2nc3cc(Cl)ccc3[nH]2)c1
inactive: A549 > 100 µM | COLO 205 > 100 µM | HOP-92 59.3 µM | HT-29 > 100 µM | IGROV-1 > 100 µM | M14 > 100 µM | Malme-3M > 100 µM | RXF 393 > 100 µM | SF-539 > 100 µM | SK-MEL-2 > 100 µM | SK-OV-3 > 100 µM | SN12C > 100 µM | SR > 100 µM | UO-31 > 100 µM

O=C(Nc1cccc(Cc2cccc(NC(=O)c3ccccc3)c2)c1)c1ccccc1
inactive: A549 24.8 µM | COLO 205 > 100 µM | HL-60 > 100 µM | HOP-92 9.77 µM | HT-29 > 100 µM | IGROV-1 47.8 µM | M14 55.1 µM | Malme-3M 23.3 µM | RXF 393 14.8 µM | SF-539 12.6 µM | SK-MEL-2 52.4 µM | SK-OV-3 25.8 µM | SN12C 19.5 µM | SNB-75 10.5 µM | SR > 100 µM | UO-31 12.7 µM

CSc1snc2sc3c(Cl)nnnc3c12
inactive: A549 17.9 µM | COLO 205 10.5 µM | HT-29 4.84 µM | IGROV-1 18.3 µM | M14 12.6 µM | Malme-3M 11.4 µM | RXF 393 12.3 µM | SF-539 17.8 µM | SK-MEL-2 12.6 µM | SK-OV-3 17.7 µM | SN12C 15.3 µM | SNB-75 11.5 µM | UO-31 13 µM

CC(=O)/C(=C\c1cccc([N+](=O)[O-])c1)C(=O)Nc1ccccc1C
inactive: A549 > 100 µM | HL-60 20.2 µM | HOP-92 > 100 µM | HT-29 95.1 µM | IGROV-1 > 100 µM | M14 95.7 µM | Malme-3M > 100 µM | RXF 393 > 100 µM | SF-539 > 100 µM | SK-MEL-2 > 100 µM | SK-OV-3 > 100 µM | SN12C > 100 µM | SR 33.6 µM | UO-31 > 100 µM

COc1ccc(/C=c2/sc3n(c2=O)NC2(CCC(C)CC2)NN=3)cc1 (stereo not given)
inactive: A549 > 100 µM | COLO 205 > 100 µM | HOP-92 34.9 µM | HT-29 > 100 µM | IGROV-1 > 100 µM | M14 > 100 µM | Malme-3M > 100 µM | RXF 393 > 100 µM | SF-539 > 100 µM | SK-MEL-2 > 100 µM | SK-OV-3 > 100 µM | SN12C > 100 µM | SNB-75 > 100 µM | SR > 100 µM | UO-31 > 100 µM

Cc1c(Cl)ccc2c1NC(=O)C2(O)CC(=O)c1cccc2ccccc12 (stereo not given)
inactive: A549 > 100 µM | COLO 205 > 100 µM | HL-60 13.3 µM | HT-29 43.4 µM | IGROV-1 > 100 µM | M14 > 100 µM | Malme-3M > 100 µM | RXF 393 99.3 µM | SF-539 > 100 µM | SK-MEL-2 > 100 µM | SK-OV-3 > 100 µM | SN12C > 100 µM | SNB-75 > 100 µM | SR 24.1 µM | UO-31 > 100 µM
